Tests used:
[1] = Inhibition of Rolipram binding to PDE4
[2] = target: Phosphodiesterase 4 (Cavia porcellus); experiment: Inhibition of PDE4 from guinea pig macrophages
[3] = target: Phosphodiesterase 4 (Cavia porcellus); experiment: Inhibition of Phosphodiesterase 4 (PDE4) from guinea pig macrophages
[4] = Bioavailability in mouse; format: ADME, organism-based; details: in vivo
Mus musculus = organism: Mus musculus; experiment: Inhibition of lipopolysaccharide (LPS) stimulated TNF-alpha release in mice after peroral dose; format: functional; details: po
[5] = Compound was evaluated for its bioavailability in mice at a dose of 1 mg/kg; format: ADME, organism-based; details: mouse, in vivo
[6] = Rapid plasma clearance of compound was determined; format: ADME
Rattus norvegicus [7] = organism: Rattus norvegicus; experiment: Inhibition of streptococcal cell wall(SCW) induced arthritis in rat on peroral dose; format: functional; details: po
Rattus norvegicus [8] = organism: Rattus norvegicus; experiment: Inhibition of streptococcal cell wall(SCW) induced arthritis in rat; format: functional
Phosphodiesterase 4 = Phosphodiesterase 4 (Homo sapiens, UniProt P27815+Q08499+Q07343+Q08493); experiment: Inhibition of Phosphodiesterase 4 (PDE4) from guinea pig macrophages; format: protein assay, Cavia porcellus; details: target entry is the homologue from another species

| SMILES | Ki [1] [nM] | IC50 [2] [nM] | further results |
| --- | --- | --- | --- |
| COc1ccc(C(=O)Nc2c(Cl)cncc2Cl)c2c1nc(C1CCCC1)n2C | 340 | 540 | – |
| COc1ccc(C(=O)Nc2c(Cl)cncc2Cl)c2[nH]c(C3CC3)nc12 | 1 | 2 | – |
| COc1ccc(C(=O)Nc2c(Cl)c[n+]([O-])cc2Cl)c2[nH]c(C(C)C)nc12 | 24 | – | IC50 [3]: 28 nM |
| COc1ccc(C(=O)Nc2c(Cl)cncc2Cl)c2[nH]c(C(C)C)nc12 | 24 | 27 | bioavailability [4]: 16%; ED50 (Mus musculus): 10 mg/kg |
| COc1ccc(C(=O)Nc2c(Cl)cncc2Cl)c2[nH]c(C)nc12 | 712 | 450 | – |
| COc1ccc(C(=O)Nc2c(Cl)cncc2Cl)c2nc(C3CCCC3)n(C)c12 | 10000 | 4400 | – |
| COc1ccc(C(=O)Nc2c(Cl)cncc2Cl)cc1OC1CCCC1 | 1 | – | bioavailability [4]: < 5% |
| COc1ccc(C(=O)Nc2c(Cl)cncc2Cl)c2[nH]c(Cc3ccccc3)nc12 | 75 | 25 | – |
| COCc1nc2c(OC)ccc(C(=O)Nc3c(Cl)c[n+]([O-])cc3Cl)c2[nH]1 | 45 | – | bioavailability [5]: 87%; half-life [6]: 2.5 h; ED50 (Mus musculus): 7 mg/kg; ED50 (Rattus norvegicus [7]): 5 mg/kg; IC50 [3]: 45 nM |
| COCc1nc2c(OC)ccc(C(=O)Nc3c(Cl)cncc3Cl)c2[nH]1 | 25 | – | bioavailability [4]: 35%; ED50 (Mus musculus): 2 mg/kg; ED50 (Rattus norvegicus [8]): 10 mg/kg |
| OCCN(CCO)c1nc(N2CCCCC2)c2nc(N(CCO)CCO)nc(N3CCCCC3)c2n1 [DIPYRIDAMOLE] | – | – | IC50 (Phosphodiesterase 4): 500 nM |
| COc1ccc(C(=O)Nc2c(Cl)cncc2Cl)c2[nH]c(C3CCCC3)nc12 | 540 | 100 | – |
| COc1ccc(C(=O)Nc2c(Cl)cncc2Cl)c2[nH]c(CCc3ccccc3)nc12 | 56 | 23 | – |
